Measurements published in ChEMBL document CHEMBL5550160, “Leveraging a rationally designed veliparib-based anilide eliciting anti-leukemic effects for the design of pH-responsive polymer nanoformulation” (Eur J Med Chem, 2024).

Columns and labels:
[1] = target: Histone deacetylase 9 (Homo sapiens) (UniProt Q9UKV0); experiment: Inhibition of HDAC9 (unknown origin) assessed as residual activity at 1 x 10^-5M (reference value: 97.55%); conditions: dose 1.0 10^-5M
[2] = target: Histone deacetylase 5 (Homo sapiens) (UniProt Q9UQL6); experiment: Inhibition of HDAC5 (unknown origin) assessed as residual activity at 1 x 10^-5M (reference value: 100%); conditions: dose 1.0 10^-5M
Chain of Histone deacetylase 5 (Homo sapiens) (Q9UQL6 whole entry, the tested form may be a part): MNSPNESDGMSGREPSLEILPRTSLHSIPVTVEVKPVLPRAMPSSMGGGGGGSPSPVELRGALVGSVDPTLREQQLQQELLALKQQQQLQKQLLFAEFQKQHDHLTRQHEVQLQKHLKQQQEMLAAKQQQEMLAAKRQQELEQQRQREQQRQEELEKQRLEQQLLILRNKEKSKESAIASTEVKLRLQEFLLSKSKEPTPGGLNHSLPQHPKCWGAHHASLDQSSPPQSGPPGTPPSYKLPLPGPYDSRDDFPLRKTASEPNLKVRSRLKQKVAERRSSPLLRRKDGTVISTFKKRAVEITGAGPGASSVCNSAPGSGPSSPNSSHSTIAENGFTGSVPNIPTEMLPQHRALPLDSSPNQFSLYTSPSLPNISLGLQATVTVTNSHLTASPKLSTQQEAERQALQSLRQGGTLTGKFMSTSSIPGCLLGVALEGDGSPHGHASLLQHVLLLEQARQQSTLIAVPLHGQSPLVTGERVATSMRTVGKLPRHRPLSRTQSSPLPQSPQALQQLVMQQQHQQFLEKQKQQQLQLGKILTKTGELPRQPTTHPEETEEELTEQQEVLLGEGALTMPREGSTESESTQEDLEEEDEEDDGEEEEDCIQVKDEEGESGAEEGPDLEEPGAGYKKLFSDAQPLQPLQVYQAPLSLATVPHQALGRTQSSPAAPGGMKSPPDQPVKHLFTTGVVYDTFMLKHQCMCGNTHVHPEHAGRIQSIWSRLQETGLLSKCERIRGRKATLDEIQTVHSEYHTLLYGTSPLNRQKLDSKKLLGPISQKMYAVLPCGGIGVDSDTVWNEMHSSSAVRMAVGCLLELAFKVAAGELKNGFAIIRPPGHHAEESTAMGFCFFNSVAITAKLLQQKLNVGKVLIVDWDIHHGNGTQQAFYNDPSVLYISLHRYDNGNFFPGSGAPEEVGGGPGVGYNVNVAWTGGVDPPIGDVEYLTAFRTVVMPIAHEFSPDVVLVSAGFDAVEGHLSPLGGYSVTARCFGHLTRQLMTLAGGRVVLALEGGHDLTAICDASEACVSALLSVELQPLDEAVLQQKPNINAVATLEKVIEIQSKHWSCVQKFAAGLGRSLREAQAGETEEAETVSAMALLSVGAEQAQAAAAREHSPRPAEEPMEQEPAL

[3] = target: T1, Protein deacetylase HDAC6 (Homo sapiens) (UniProt Q9UBN7); experiment: Inhibition of HDAC6 (unknown origin) using p53 residues 379 to 382 [RHKK(Ac)] as fluorogenic substrate assessed as residual activity at 3.70 x 10^-7M (reference value: 101.06%); conditions: dose 3.7 10^-7M
T1 sequence (whole entry): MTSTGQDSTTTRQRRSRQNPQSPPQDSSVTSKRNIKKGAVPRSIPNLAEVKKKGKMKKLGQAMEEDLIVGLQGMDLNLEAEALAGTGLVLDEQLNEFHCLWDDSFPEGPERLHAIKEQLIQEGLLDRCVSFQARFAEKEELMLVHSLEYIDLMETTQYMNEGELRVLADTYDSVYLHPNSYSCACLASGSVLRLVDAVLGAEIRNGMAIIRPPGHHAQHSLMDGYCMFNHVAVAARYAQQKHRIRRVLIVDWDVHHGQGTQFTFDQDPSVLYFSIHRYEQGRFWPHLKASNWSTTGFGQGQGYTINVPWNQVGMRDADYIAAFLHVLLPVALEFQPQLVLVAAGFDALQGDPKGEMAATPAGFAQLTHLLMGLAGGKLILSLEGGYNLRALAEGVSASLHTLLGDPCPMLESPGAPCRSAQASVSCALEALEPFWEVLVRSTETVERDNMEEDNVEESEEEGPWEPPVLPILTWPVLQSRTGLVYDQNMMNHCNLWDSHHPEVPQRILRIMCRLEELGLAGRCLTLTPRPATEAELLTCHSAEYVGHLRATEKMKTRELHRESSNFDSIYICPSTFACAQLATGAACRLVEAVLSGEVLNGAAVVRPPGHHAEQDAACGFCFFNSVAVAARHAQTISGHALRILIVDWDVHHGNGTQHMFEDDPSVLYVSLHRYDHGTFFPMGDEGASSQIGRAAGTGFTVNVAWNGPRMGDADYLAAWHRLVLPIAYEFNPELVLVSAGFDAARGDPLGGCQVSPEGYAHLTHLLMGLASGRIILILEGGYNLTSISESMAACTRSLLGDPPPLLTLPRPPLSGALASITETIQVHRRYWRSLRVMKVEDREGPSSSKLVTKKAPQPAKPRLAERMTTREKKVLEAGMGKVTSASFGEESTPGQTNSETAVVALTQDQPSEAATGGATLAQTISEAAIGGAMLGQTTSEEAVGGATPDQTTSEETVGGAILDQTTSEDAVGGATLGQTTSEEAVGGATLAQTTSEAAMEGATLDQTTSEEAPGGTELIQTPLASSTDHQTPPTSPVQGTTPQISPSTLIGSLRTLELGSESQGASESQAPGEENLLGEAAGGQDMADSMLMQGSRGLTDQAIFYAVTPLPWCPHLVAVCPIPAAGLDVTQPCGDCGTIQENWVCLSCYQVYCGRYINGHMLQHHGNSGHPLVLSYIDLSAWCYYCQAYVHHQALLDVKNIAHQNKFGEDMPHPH

HL-60 [4] = experiment: Downregulation of HDAC3 protein expression in human HL-60 cells by Western blot analysis; format: functional, cell-based; conditions: dose 0.2-5 µM
HL-60 [5] = experiment: Induction of autophagy in human HL-60 cells assessed as conversion of LC3-I to LC3-II at 0.5 to 1 times IC50 by Western blot analysis; format: functional, cell-based
[6] = target: Histone deacetylase 9 (Homo sapiens) (UniProt Q9UKV0); experiment: Inhibition of HDAC9 (unknown origin) assessed as residual activity at 1.37 x 10^-8M (reference value: 97.55%); conditions: dose 1.37 10^-8M
[7] = target: T2, Polyamine deacetylase HDAC10 (Homo sapiens) (UniProt Q969S8); experiment: Inhibition of HDAC10 (unknown origin) assessed as residual activity at 1.23 x 10^-7M (reference value: 101.54%); conditions: dose 1.23 10^-7M
T2 sequence (whole entry): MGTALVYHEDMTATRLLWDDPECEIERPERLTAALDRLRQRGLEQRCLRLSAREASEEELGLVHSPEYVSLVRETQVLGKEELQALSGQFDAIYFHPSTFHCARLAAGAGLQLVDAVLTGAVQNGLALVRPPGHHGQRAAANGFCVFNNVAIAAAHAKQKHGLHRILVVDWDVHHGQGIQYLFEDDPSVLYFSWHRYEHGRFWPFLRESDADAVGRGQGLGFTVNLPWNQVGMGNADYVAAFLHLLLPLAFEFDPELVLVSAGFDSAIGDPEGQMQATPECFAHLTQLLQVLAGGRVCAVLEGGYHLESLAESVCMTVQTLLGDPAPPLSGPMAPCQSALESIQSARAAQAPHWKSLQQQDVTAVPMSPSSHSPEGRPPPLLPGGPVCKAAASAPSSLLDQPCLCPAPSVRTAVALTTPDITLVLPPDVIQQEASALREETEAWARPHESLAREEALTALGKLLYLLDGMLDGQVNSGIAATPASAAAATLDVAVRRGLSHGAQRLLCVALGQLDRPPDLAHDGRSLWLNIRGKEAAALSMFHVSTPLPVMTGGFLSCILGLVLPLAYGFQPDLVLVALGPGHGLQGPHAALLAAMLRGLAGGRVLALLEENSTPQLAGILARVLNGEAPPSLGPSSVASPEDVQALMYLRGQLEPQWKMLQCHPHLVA

[8] = target: T2, Polyamine deacetylase HDAC10 (Homo sapiens); experiment: Inhibition of HDAC10 (unknown origin) assessed as residual activity at 4.57 x 10^-9M (reference value: 101.54%); conditions: dose 4.57 10^-9M
[9] = target: T1, Protein deacetylase HDAC6 (Homo sapiens); experiment: Inhibition of HDAC6 (unknown origin) using p53 residues 379 to 382 [RHKK(Ac)] as fluorogenic substrate assessed as residual activity at 1.11 x 10^-6M (reference value: 101.06%); conditions: dose 1.1 10^-6M
[10] = target: Histone deacetylase 9 (Homo sapiens) (UniProt Q9UKV0); experiment: Inhibition of HDAC9 (unknown origin) assessed as residual activity at 1.23 x 10^-7M (reference value: 97.55%); conditions: dose 1.23 10^-7M
HL-60 [11] = experiment: Downregulation of HDAC1 protein expression in human HL-60 cells by Western blot analysis; format: functional, cell-based; conditions: dose 0.2-5 µM
[12] = target: T1, Protein deacetylase HDAC6 (Homo sapiens); experiment: Inhibition of HDAC6 (unknown origin) using p53 residues 379 to 382 [RHKK(Ac)] as fluorogenic substrate assessed as residual activity at 1 x 10^-5M (reference value: 101.06%); conditions: dose 1.0 10^-5M
[13] = target: Histone deacetylase 4 (Homo sapiens) (UniProt P56524); experiment: Inhibition of HDAC4 (unknown origin) assessed as residual activity at 3.70 x 10^-7M (reference value: 98.90%); conditions: dose 3.7 10^-7M
Chain of Histone deacetylase 4 (Homo sapiens) (P56524 whole entry): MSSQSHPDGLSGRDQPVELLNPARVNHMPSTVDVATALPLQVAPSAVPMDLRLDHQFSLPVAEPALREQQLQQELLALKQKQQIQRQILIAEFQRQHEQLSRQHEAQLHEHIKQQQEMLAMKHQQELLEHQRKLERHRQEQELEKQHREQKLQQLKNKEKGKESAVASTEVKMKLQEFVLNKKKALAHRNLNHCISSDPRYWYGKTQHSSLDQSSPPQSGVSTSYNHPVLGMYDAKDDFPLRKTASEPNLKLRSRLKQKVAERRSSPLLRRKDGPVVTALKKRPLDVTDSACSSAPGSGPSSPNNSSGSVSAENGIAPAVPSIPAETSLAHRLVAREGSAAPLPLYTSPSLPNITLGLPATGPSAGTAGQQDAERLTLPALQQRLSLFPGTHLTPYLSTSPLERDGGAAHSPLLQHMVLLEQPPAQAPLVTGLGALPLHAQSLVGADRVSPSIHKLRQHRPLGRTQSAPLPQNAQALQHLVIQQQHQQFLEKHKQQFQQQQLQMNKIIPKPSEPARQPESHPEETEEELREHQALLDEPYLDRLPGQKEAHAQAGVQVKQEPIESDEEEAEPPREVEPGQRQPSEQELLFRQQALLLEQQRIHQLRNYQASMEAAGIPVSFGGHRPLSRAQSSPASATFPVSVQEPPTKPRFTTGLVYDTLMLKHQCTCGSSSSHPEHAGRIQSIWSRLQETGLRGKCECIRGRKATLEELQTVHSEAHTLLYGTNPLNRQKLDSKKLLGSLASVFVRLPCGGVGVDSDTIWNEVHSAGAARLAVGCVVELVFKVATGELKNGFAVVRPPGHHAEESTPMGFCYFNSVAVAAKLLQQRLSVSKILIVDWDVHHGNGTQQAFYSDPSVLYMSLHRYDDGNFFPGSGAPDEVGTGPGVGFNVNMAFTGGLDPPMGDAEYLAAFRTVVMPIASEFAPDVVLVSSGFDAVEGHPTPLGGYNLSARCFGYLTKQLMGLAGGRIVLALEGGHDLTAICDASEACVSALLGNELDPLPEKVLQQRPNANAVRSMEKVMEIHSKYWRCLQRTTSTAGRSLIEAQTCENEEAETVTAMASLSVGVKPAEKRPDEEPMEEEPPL

[14] = target: Histone deacetylase 5 (Homo sapiens) (UniProt Q9UQL6); experiment: Inhibition of HDAC5 (unknown origin) assessed as residual activity at 1.52 x 10^-9M (reference value: 100%); conditions: dose 1.52 10^-9M
[15] = target: Histone deacetylase 4 (Homo sapiens) (UniProt P56524); experiment: Inhibition of HDAC4 (unknown origin) assessed as residual activity at 4.57 x 10^-9M (reference value: 98.90%); conditions: dose 4.57 10^-9M

Chain of Histone deacetylase 9 (Homo sapiens) (Q9UKV0 whole entry): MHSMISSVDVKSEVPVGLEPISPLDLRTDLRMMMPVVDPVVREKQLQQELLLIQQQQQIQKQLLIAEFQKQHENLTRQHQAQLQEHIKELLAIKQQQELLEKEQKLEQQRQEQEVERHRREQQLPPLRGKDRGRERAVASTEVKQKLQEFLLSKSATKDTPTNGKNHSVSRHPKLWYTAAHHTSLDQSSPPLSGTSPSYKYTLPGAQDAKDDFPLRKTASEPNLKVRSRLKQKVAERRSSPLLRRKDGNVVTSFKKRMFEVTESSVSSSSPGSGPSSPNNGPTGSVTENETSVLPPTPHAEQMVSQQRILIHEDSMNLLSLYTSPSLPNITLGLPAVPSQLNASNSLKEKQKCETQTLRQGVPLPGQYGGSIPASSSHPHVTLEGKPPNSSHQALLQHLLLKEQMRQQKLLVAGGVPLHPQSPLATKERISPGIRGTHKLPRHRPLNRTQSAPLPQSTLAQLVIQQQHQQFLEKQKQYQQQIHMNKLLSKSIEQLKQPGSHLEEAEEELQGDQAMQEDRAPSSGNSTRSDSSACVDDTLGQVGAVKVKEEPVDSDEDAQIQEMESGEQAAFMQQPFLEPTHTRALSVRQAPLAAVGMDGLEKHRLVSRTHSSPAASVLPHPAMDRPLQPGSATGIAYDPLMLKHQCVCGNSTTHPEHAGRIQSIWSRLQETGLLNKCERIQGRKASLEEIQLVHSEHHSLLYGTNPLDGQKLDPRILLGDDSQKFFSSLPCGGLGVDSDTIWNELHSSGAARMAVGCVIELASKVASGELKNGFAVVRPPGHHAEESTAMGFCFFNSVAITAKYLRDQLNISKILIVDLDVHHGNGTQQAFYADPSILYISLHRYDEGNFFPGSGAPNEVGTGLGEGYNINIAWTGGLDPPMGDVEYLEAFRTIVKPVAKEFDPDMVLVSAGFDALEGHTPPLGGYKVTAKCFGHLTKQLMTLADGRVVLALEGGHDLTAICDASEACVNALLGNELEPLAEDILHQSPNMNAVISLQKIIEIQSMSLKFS

Activity [1]: 100%
Activity [2]: 111%
Activity [3]: 101%
Activity [6]: 84.9%
Activity [7]: 101%
Activity [8]: 98.8%
Activity [9]: 79.8%
Activity [10]: 88.5%
Activity [12]: 107%
Activity [13]: 108%
Activity [14]: 80.1%
Activity [15]: 95.9%
Structure (SMILES): NC(=O)c1cccc2[nH]c(-c3ccc(NCc4ccc(C(=O)Nc5ccccc5N)cc4)cc3)nc12
Activity (HL-60 [4]): Dose-Dependent Effect
Activity (HL-60 [5]): Dose-Dependent Effect
Activity (HL-60 [11]): Dose-Dependent Effect
